# Tests used:
# Experiment in all cases: relative viability (nuclei count vs DMSO), 5 days (fraction); higher = more cells survive
# [1] = compound: CCCS(=O)(=O)Nc1ccc(F)c(C(=O)c2c[nH]c3ncc(-c4ccc(Cl)cc4)cc23)c1F [Vemurafenib] + Cc1cc(Nc2cc(N3CCN(C)CC3)nc(Sc3ccc(NC(=O)C4CC4)cc3)n2)n[nH]1 [Tozasertib] (partner 0.1 µM)
# Procedure, shortened: (§1)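 Relative viability was taken as the ratio of nuclei in treated wells to nuclei in vehicle wells. Lung cancer cell lines in 1536-well plates received compounds by pin tool one day after seeding, either one drug alone or a fixed anchor-drug dose plus five library-drug doses (not always all listed) in √10 steps. Nuclei were counted on 4× images after 5 days of treatment, and values are medians of duplicate plates.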
# [2] = compound: CCCS(=O)(=O)Nc1ccc(F)c(C(=O)c2c[nH]c3ncc(-c4ccc(Cl)cc4)cc23)c1F [Vemurafenib] + CS(=O)(=O)N1CCN(Cc2cc3nc(-c4cccc5[nH]ncc45)nc(N4CCOCC4)c3s2)CC1 [Pictilisib] (partner 1 µM)
# Procedure, shortened: as §1
# [3] = compound: CCCS(=O)(=O)Nc1ccc(F)c(C(=O)c2c[nH]c3ncc(-c4ccc(Cl)cc4)cc23)c1F [Vemurafenib] + CC(=O)c1c(C)c2cnc(Nc3ccc(N4CCNCC4)cn3)nc2n(C2CCCC2)c1=O [Palbociclib] (partner 0.5 µM)
# Procedure, shortened: as §1
# [4] = compound: COc1cccc2cc(-c3nc([C@H]4CC[C@H](C(=O)O)CC4)n4ncnc(N)c34)[nH]c12 [OSI-027] + CC(=O)Nc1cccc(-n2c(=O)n(C3CC3)c(=O)c3c(Nc4ccc(I)cc4F)n(C)c(=O)c(C)c32)c1 [Trametinib] (partner 0.02 µM)
# Procedure, shortened: as §1
Cell Line,relative viability ([1]; first compound 0.03162 µM),relative viability ([1]; first compound 0.1 µM),relative viability ([1]; first compound 0.3162 µM),relative viability ([1]; first compound 1 µM),relative viability ([2]; first compound 0.03162 µM),relative viability ([2]; first compound 0.1 µM),relative viability ([2]; first compound 0.3162 µM),relative viability ([2]; first compound 1 µM),relative viability ([3]; first compound 0.03162 µM),relative viability ([3]; first compound 0.1 µM),relative viability ([3]; first compound 0.3162 µM),relative viability ([3]; first compound 1 µM),relative viability ([4]; first compound 0.01 µM),relative viability ([4]; first compound 0.03162 µM),relative viability ([4]; first compound 0.1 µM),relative viability ([4]; first compound 0.3162 µM),relative viability ([4]; first compound 1 µM)
NCI-H441,0.708,0.561,0.476,0.591,0.44,0.402,0.544,0.35,0.23,0.185,0.241,0.237,0.346,0.434,0.486,0.362,0.253
NCI-H460,0.389,0.28,–,0.156,0.332,0.438,0.271,0.296,0.146,0.152,0.108,0.203,0.152,0.13,0.145,0.129,0.12
NCI-H520,0.529,0.411,0.435,0.415,0.283,0.369,0.372,0.268,0.222,0.188,0.221,0.222,0.644,0.606,0.563,0.379,0.188
NCI-H522,0.609,0.471,0.592,0.631,–,–,–,–,0.822,0.743,0.857,1.26,0.691,0.709,0.725,0.632,0.463
NCI-H596,0.886,0.767,0.813,0.904,0.352,0.356,0.429,0.388,–,–,–,–,0.738,0.792,0.914,0.758,0.538
NCI-H647,0.262,0.263,0.271,0.248,0.343,0.39,–,0.434,0.375,0.434,0.404,0.394,0.367,0.395,0.438,0.385,0.236
NCI-H1299,–,–,–,–,0.732,0.719,0.843,0.622,–,–,–,–,–,–,–,–,–
NCI-H1563,–,–,–,–,0.666,0.621,0.584,0.647,–,–,–,–,–,–,–,–,–
NCI-H1623,0.409,–,0.452,0.41,–,–,–,–,–,–,–,–,–,–,–,–,–
NCI-H1648,0.489,–,0.962,0.477,–,–,–,–,–,0.277,0.341,0.294,0.481,0.449,–,0.49,0.321
NCI-H1703,–,–,–,–,0.245,0.21,0.233,0.252,–,–,–,–,–,–,–,–,–
NCI-H1792,–,–,–,–,0.272,0.249,0.259,0.234,0.623,0.581,–,0.643,0.528,0.303,0.412,0.408,0.219
NCI-H2342,0.477,0.478,0.629,0.417,–,–,–,–,0.512,0.461,0.541,0.548,0.802,0.816,0.724,0.687,0.556
SW 900,0.455,0.557,0.585,0.435,–,–,–,–,0.563,0.43,0.549,0.488,0.933,0.866,0.789,0.712,0.608
